Where two headings read alike, the source gives them in different places. Marks after values point to notes of the source that are not given here. One block for each molecule: values may come before it.
What was measured:
[1] = target: T1, OCT2 (SLC22A2) (Homo sapiens, UniProt O15244); test: in vitro; details: pH 7.4
T1 sequence (O15244 1-555): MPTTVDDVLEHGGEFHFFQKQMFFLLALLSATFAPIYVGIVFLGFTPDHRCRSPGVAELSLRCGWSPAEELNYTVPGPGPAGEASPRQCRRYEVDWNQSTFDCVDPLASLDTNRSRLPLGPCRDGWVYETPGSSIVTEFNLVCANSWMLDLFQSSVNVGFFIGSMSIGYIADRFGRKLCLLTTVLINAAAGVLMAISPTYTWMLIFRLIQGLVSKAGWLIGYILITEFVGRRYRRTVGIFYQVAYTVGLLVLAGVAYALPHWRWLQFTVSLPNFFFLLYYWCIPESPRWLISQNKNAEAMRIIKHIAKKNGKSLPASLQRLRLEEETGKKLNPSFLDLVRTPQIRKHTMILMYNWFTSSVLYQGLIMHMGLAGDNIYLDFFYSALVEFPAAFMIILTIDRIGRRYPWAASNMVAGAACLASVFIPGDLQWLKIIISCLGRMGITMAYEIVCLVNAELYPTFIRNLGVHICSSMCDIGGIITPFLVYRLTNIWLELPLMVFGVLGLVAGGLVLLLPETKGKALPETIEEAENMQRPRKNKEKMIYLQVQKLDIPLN

[2] = target: T2, MATE1 (SLC47A1) (Homo sapiens, UniProt Q96FL8); test: in vitro; details: pH 7.4
T2 sequence (Q96FL8 1-570): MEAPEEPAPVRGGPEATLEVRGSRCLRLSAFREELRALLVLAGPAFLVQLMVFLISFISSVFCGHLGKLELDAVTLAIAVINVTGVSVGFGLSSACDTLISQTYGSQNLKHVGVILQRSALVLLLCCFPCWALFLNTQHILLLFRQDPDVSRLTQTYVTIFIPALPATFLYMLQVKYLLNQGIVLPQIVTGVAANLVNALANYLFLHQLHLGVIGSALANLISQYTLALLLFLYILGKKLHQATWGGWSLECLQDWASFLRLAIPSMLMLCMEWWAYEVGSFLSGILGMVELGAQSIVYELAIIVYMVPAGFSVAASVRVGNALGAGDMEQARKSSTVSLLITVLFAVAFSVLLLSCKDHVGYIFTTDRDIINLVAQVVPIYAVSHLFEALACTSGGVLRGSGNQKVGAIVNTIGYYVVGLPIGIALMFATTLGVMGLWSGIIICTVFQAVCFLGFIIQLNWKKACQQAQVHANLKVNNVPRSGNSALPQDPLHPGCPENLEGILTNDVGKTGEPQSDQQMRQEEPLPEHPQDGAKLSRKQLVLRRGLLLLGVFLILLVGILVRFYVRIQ

[3] = target: T3, MATE2-K (SLC47A2) (Homo sapiens, UniProt Q86VL8); test: in vitro; details: pH 7.4
T3 sequence (Q86VL8 1-566 isoform Q86VL8-3): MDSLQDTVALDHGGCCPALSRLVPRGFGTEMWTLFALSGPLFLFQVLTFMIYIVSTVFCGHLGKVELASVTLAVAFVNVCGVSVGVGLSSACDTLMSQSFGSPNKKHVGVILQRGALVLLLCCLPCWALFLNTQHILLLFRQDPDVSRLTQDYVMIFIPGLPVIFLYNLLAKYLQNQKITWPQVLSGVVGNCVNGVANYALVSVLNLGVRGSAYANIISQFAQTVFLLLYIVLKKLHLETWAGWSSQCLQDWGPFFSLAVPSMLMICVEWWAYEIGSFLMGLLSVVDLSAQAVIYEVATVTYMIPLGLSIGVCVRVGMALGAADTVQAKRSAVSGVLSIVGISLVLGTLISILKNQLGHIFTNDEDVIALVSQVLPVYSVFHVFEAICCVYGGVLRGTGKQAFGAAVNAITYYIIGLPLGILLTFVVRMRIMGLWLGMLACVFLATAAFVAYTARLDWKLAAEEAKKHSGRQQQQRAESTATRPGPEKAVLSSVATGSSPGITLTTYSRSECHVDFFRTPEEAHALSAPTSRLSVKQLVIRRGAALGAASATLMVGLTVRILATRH

[4] = target: T4, OCT1 (SLC22A1) (Homo sapiens, UniProt O15245); test: in vitro; details: pH 7.4
T4 sequence (O15245 1-554): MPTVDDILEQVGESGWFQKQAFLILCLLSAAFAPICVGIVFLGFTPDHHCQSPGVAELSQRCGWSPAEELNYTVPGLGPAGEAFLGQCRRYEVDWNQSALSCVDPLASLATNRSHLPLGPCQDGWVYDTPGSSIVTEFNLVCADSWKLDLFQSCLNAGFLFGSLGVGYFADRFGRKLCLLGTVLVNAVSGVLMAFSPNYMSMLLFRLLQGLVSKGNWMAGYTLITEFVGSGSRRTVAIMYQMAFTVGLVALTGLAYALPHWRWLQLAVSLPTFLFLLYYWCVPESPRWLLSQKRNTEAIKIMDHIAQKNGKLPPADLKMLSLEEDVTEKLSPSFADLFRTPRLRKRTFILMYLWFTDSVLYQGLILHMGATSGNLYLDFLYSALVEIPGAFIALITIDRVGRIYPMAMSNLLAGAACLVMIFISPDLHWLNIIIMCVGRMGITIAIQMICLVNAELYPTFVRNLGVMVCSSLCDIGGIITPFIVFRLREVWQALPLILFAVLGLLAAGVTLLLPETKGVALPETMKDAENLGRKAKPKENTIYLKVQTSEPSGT

[5] = target: T3, MATE2-K (SLC47A2); test: Cellular uptake into MATE2-K-overexpressing HEK293 cells vs EV control cells (HPLC-MS/MS)
[6] = target: T2, MATE1 (SLC47A1); test: Cellular uptake into MATE1-overexpressing HEK293 cells vs EV control cells (HPLC-MS/MS)
[7] = target: T1, OCT2 (SLC22A2); test: Cellular uptake into OCT2-overexpressing HEK293 cells vs EV control cells (HPLC-MS/MS); details: for higher v max of one enantiomer over the other, OCT2: label = enantiomer with higher v max
[8] = target: T4, OCT1 (SLC22A1); test: Cellular uptake into OCT1-overexpressing HEK293 cells vs EV control cells (HPLC-MS/MS)
[9] = target: T5, OCT3 (SLC22A3) (Homo sapiens, UniProt O75751); test: Cellular uptake into OCT3-overexpressing HEK293 cells vs EV control cells (HPLC-MS/MS); details: for uptake ratio OCT3 (transporter-overexpressing cells over EV control cells): mean (±SD, N): 2 min, HEK293; for stereoselectivity OCT3 (uptake ratio of the more strongly transported enantiomer divided by that of the other): label = favoured enantiomer
T5 sequence (O75751 1-556): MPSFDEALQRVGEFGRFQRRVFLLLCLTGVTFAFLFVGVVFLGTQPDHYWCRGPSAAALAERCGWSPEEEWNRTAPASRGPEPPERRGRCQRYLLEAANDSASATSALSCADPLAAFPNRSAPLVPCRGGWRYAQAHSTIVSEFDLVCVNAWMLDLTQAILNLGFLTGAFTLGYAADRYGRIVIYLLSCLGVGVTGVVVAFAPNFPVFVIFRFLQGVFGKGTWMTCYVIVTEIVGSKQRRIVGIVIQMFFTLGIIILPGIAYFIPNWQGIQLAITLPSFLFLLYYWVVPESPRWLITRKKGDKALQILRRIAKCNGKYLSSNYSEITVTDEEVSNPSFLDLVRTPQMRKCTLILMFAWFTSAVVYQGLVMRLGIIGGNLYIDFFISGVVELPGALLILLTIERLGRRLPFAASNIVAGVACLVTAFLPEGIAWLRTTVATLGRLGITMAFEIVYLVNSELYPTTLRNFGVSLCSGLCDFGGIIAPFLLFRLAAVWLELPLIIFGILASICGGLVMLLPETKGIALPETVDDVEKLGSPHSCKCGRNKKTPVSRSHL

[10] = target: T1, OCT2 (SLC22A2); details: pH 7.4
[11] = 2.5 μM substrate, 1 min, 30 mM NH4Cl preincubation, HEK293
[12] = 2.5 μM substrate, 1 min, 30 mM NH4Cl preincubation, HEK293, listed as (S)-(+)-2-amino-1-Pentanol
[13] = 2.5 μM substrate (§), 2 min, HEK293
[14] = 2.5 μM substrate (§), 2 min, HEK293, listed as (S)-(+)-2-amino-1-Pentanol
[15] = OCT2, net uptake, Michaelis–Menten

Compound: C[C@@H](N)CCO [(R)-3-aminobutan-1-ol]
selectivity ratio at 2 min [1]: 2.7
selectivity ratio at 1 min [2]: 1.9
selectivity ratio at 1 min [3]: 1.4
selectivity ratio at 2 min [4]: 1.1

Compound: CC(C)[C@H](N)CO [L-valinol]
K m (±SEM) [7, 15]: 362(±156) μM
v max (±SEM) [7, 15]: 4970 (±967) pmol/mg protein/min
higher v max of one enantiomer over the other, OCT2 [7]: 2.0 fold
selectivity ratio at 2 min [1]: 1.04
selectivity ratio at 1 min [3]: 1.5
stereoselectivity OCT3 (uptake ratio of the more strongly transported enantiomer divided by that of the other) [9]: 1.04-fold for (S)

Compound: CC(C)NC(C)C [diisopropylamine]
CLint (±SEM) [10]: 20 (±12) μL/mg protein/min
uptake ratio MATE2K (transporter-overexpressing cells over EV control cells): mean (±SD, N) [5]: 1.2 (0.1, 3)
uptake ratio MATE1 (transporter-overexpressing cells over EV control cells): mean (±SD, N) [6]: 0.8 (0.02, 3) ^b
uptake ratio OCT2 (transporter-overexpressing cells over EV control cells): mean (±SD, N) [7]: 5.1 (1.2, 4) ^b
v max (±SEM) [7]: 1388 (±157) pmol/mg protein/min
uptake ratio OCT1 (transporter-overexpressing cells over EV control cells): mean (±SD, N) [8]: 1.4 (0.3, 4)
uptake ratio OCT3 (transporter-overexpressing cells over EV control cells): mean (±SD, N) ([9]; 10 μM substrate): 1.1 (0.2, 4)

Continued, in another order:

uptake ratio MATE2K (transporter-overexpressing cells over EV control cells): mean (±SD, N) [5, 11]: 1.5 (0.4, 4)
uptake ratio MATE2K (transporter-overexpressing cells over EV control cells): mean (±SD, N) [5, 12]: 1.5
uptake ratio MATE1 (transporter-overexpressing cells over EV control cells): mean (±SD, N) [6, 11]: 1.1 (0.1, 4)
uptake ratio MATE1 (transporter-overexpressing cells over EV control cells): mean (±SD, N) [6, 12]: 1.1
uptake ratio OCT2 (transporter-overexpressing cells over EV control cells): mean (±SD, N) [7, 13]: 6.0 (1.7, 4) ^b
uptake ratio OCT2 (transporter-overexpressing cells over EV control cells): mean (±SD, N) [7, 14]: 6.0
K m (±SEM) [7, 15]: 245 (±83) μM
v max (±SEM) [7, 15]: 2342 (±290) ^a pmol/mg protein/min
K m (±SEM) ([7]; OCT2, net uptake, Michaelis–Menten, listed as (S)-2-amino-1-pentanol): 245 µM
higher v max of one enantiomer over the other, OCT2 [7]: 1.6 fold
uptake ratio OCT1 (transporter-overexpressing cells over EV control cells): mean (±SD, N) [8, 13]: 1.0 (0.3, 4)
uptake ratio OCT1 (transporter-overexpressing cells over EV control cells): mean (±SD, N) [8, 14]: 1.0
uptake ratio OCT3 (transporter-overexpressing cells over EV control cells): mean (±SD, N) ([9]; 2.5 μM substrate (§)): 1.1 (0.2, 4)
uptake ratio OCT3 (transporter-overexpressing cells over EV control cells): mean (±SD, N) ([9]; 2.5 μM substrate (§), listed as (S)-(+)-2-amino-1-Pentanol): 1.1
stereoselectivity OCT3 (uptake ratio of the more strongly transported enantiomer divided by that of the other) [9]: 1.1-fold for (S)
Compound: CCC[C@H](N)CO [(S)-(+)-2-amino-1-pentanol]
selectivity ratio at 2 min [1]: 1.2

stereoselectivity OCT3 (uptake ratio of the more strongly transported enantiomer divided by that of the other) [9]: 1.4-fold for (R)
Compound: CC(C)C[C@@H](N)CO [(R)-(−)-leucinol]
selectivity ratio at 1 min [2]: 1.1

Reference: article PMC12340637, “Transport of Small Aliphatic Amines by Polyspecific Solute Carriers: Deciphering Structure–Function Relationships” (ACS Pharmacology & Translational Science, 2025)
